Some test systems named below: SK-MEL-2 melanoma; MDA-MB-231 breast; T-47D breast; MDA-MB-435; SR leukemia; HCC-2998 colon; DU-145 prostate; NCI-H23 lung; MDA-N; TK-10 renal; MCF7 breast; SF-539 CNS; ACHN renal; PC-3 prostate; M14 melanoma; OVCAR-4 ovarian; CCRF-CEM leukemia; NCI-H522 lung; LOX IMVI melanoma.
Assay in all cases: inhibition of tumour cell growth, NCI panel, 48 h

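Exposure lasted 48 hours, with cells grown in 96-well plates and compounds tested at five concentrations. Definition used: TGI = concentration required for complete inhibition of growth.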

As for `Cc1ccc(Cc2n[nH]c(=O)n2-c2ccccc2)cc1`, the TGI in the assay on SK-MEL-2 melanoma is over 100 µM; in the assay with MDA-MB-231 breast it was over 100 µM; with T-47D breast it was 61.8 µM; in the assay on MDA-MB-435 it was over 100 µM; in the assay with SR leukemia, over 100 µM; with HCC-2998 colon it was over 100 µM. Moreover, the TGI with DU-145 prostate, in the assay with NCI-H23 lung, in the assay with MDA-N, in the assay with TK-10 renal, in the assay on MCF7 breast and with SF-539 CNS was over 100 µM in each case. The TGI in the assay with ACHN renal and with PC-3 prostate was over 100 µM throughout.
On to `CC(C)c1nc2cc(C(F)(F)F)ccc2[nH]c1=O`, for which the TGI in the assay on M14 melanoma, with SK-MEL-2 melanoma, with OVCAR-4 ovarian, with MDA-MB-231 breast, with T-47D breast and in the assay on MDA-MB-435 was over 100 µM in each case. The TGI in the assay on SR leukemia, with HCC-2998 colon, in the assay on CCRF-CEM leukemia, in the assay with NCI-H23 lung, in the assay on MDA-N and with TK-10 renal was over 100 µM in each case. Further, the TGI in the assay with MCF7 breast, in the assay on SF-539 CNS, in the assay on ACHN renal, in the assay on NCI-H522 lung and with PC-3 prostate was over 100 µM each time.
Take `O=C(NCCCCN(CCCNC(=O)C(F)(F)F)Cc1ccc2ccccc2c1)C(F)(F)F`: the TGI in the assay with M14 melanoma came out at 30.3 µM; in the assay with OVCAR-4 ovarian, 37.8 µM; in the assay on MDA-MB-231 breast, 31.1 µM; in the assay with T-47D breast, 40.2 µM; in the assay on MDA-MB-435 it was 35.7 µM; in the assay on HCC-2998 colon it was 26.8 µM. The TGI is 56.1 µM with DU-145 prostate; 44.6 µM in the assay with NCI-H23 lung; 31.6 µM in the assay on MDA-N; 32.7 µM in the assay with LOX IMVI melanoma; 47.9 µM with TK-10 renal; 27.8 µM with MCF7 breast. Besides, the TGI with SF-539 CNS stood at 29.8 µM; with ACHN renal, 38.9 µM; in the assay on NCI-H522 lung it was 36.7 µM.
In the case of `C/C(=C\c1ccccc1)C(=O)NCc1ccc(C(=O)NCCC(C)C)cc1`, the TGI in the assay with M14 melanoma, in the assay with SK-MEL-2 melanoma, in the assay with OVCAR-4 ovarian, with MDA-MB-231 breast, with T-47D breast and in the assay with MDA-MB-435 was over 100 µM in each case. The TGI in the assay on HCC-2998 colon, in the assay with DU-145 prostate, in the assay with CCRF-CEM leukemia, in the assay on NCI-H23 lung, in the assay with MDA-N and in the assay with LOX IMVI melanoma was over 100 µM in each case. The TGI in the assay with TK-10 renal, with MCF7 breast, in the assay on SF-539 CNS, in the assay with ACHN renal, in the assay with NCI-H522 lung and in the assay on PC-3 prostate was over 100 µM each time.
In the case of `COc1cc(/C=N/n2c(Cc3ccc(Cl)cc3)n[nH]c2=O)cc(OC)c1OC`, the TGI in the assay with M14 melanoma, with SK-MEL-2 melanoma, with OVCAR-4 ovarian, in the assay on MDA-MB-231 breast, in the assay with T-47D breast and in the assay with MDA-MB-435 was over 100 µM each time. The TGI in the assay with HCC-2998 colon, in the assay on CCRF-CEM leukemia, in the assay on NCI-H23 lung, in the assay on MDA-N, in the assay on MCF7 breast and in the assay with SF-539 CNS was over 100 µM in each case. Besides, the TGI in the assay on ACHN renal and in the assay with PC-3 prostate was over 100 µM throughout.
For the compound `O=S(=O)(O)CCCC1S(=O)(=O)OCCOS1(=O)=O`, the TGI in the assay with M14 melanoma, with OVCAR-4 ovarian, in the assay with MDA-MB-231 breast, in the assay with T-47D breast, with MDA-MB-435 and in the assay on SR leukemia was over 100 µM each time. In addition, the TGI in the assay with HCC-2998 colon, with DU-145 prostate, in the assay with NCI-H23 lung, in the assay with MDA-N, in the assay with LOX IMVI melanoma and in the assay with TK-10 renal was over 100 µM in each case. The TGI in the assay on MCF7 breast, with SF-539 CNS, with ACHN renal, in the assay on NCI-H522 lung and with PC-3 prostate was over 100 µM in each case.
Turning to `CCOc1ccc(Nc2nc3c(s2)C(=O)c2ccccc2C3=O)cc1`, the TGI was 27 µM in the assay with M14 melanoma; 30.6 µM with SK-MEL-2 melanoma; 21.3 µM in the assay with OVCAR-4 ovarian; 18.4 µM in the assay on MDA-MB-231 breast; 49.9 µM in the assay with T-47D breast; 3.25 µM in the assay with MDA-MB-435. Further, the TGI in the assay on HCC-2998 colon was 33.5 µM; in the assay with DU-145 prostate it was 27.8 µM; with CCRF-CEM leukemia, over 100 µM; with MDA-N it was 3.69 µM; in the assay on LOX IMVI melanoma, 15.8 µM; in the assay with TK-10 renal, 36.3 µM. For the same compound, the TGI in the assay with MCF7 breast is 38.4 µM; in the assay on SF-539 CNS, 35.7 µM; in the assay on ACHN renal it was 28.9 µM; in the assay on NCI-H522 lung, 78.7 µM; in the assay with PC-3 prostate, 20 µM.
With `COc1cc(/C=C2/SC(c3ccccc3)N(c3cccc(Cl)c3)C2=O)cc(OC)c1OC` (stereo not given), the TGI in the assay on M14 melanoma was over 100 µM; in the assay on SK-MEL-2 melanoma, over 100 µM; in the assay on OVCAR-4 ovarian it was over 100 µM; in the assay with MDA-MB-231 breast, over 100 µM; in the assay on T-47D breast, over 100 µM; with MDA-MB-435 it was 93.4 µM. Moreover, the TGI with SR leukemia was 81.8 µM; in the assay with HCC-2998 colon, over 100 µM; with DU-145 prostate, over 100 µM; in the assay on CCRF-CEM leukemia it was 39.9 µM; with NCI-H23 lung, over 100 µM; with MDA-N it was 43.2 µM. Further, the TGI with LOX IMVI melanoma was 35.1 µM; with TK-10 renal it was over 100 µM; with MCF7 breast it was over 100 µM; with SF-539 CNS, 43 µM; with ACHN renal, over 100 µM; in the assay with NCI-H522 lung it was 26.2 µM.

The record behind these values is PubChem BioAssay (NCI).
